These results are taken from patent US20250381324A1, “CD31 MIMETIC COATING FOR ENDOVASCULAR STENT” (INSERM (Institut National de la Santé et de la Recherche …, priority 2021, published 2025).

Square brackets hold non-standard residues; d marks the D form. Primed or numbered codes have the meaning given here. Ends that are not written are not given here. Lys(N3) = [N-]=[N+]=NCCCC[C@H](N)C(=O)O; hCys = N[C@@H](CCS)C(=O)O; PEG4′ = not defined here

For this experiment, the system named is Primary Human Aortic Endothelial Cells (HAEC). The experiment can be described thus: Human aortic endothelial cells grown 48 h on bare or peptide-coated nitinol disks; F-actin / CD31 staining and image analysis. Format: cell-based. The settings on record: Example 2, FIG. 25; repeated experiments (SP547, SP548 only one measure). The protocol:
Nitinol disks are left untouched (bare metal) or coated with a domain 1, domain 2 or domain 1 and 2 CD31 analog peptide. The tested peptide is grafted to the nitinol disk following a polydopamine, DBCO-PEG4-amine and azide CD31 derivative peptide using a sequential dip-coating layering procedure. After this step, all the disks are incubated with Human aortic endothelial cells for 48 h. Disks are then rinsed and the cells are fixed in a formalin solution before staining. The staining is fulfilled using phalloidin coupled to AlexaFluor®488 dye (green fluorescence for Actin), DAPI is used for DNA staining and a domain 1 CD31 antibody coupled to APC is used for external Domain 1 staining. The cell adhesion and Actin/CD31 expression was evaluated by image analysis of the surface after staining.
In particular, as per FIG. 2 the bare or coated nitinol disks were placed at the bottom of culture wells. Primary Human Aortic Endothelial Cells (HAEC) were allowed to grow on the disks for a period of 48 h. The disks were thereafter rinsed with phosphate buffered saline, fixed in formalin, and processed for fluorescence microscopy. Disk-adherent cells were immersed in a solution comprising Hoechst 33342 (1 μg/ml, to stain the nuclei), phalloidin coupled to AlexaFluor®488 dye (0.5 μM, to stain F-actin fibers) and a monoclonal antibody directed against CD31 domain 1, coupled to allophycocyanin (to detect the presence and localization of intact CD31 at the cell surface) for 1 hour at 37° C., washed and mounted face down on glass bottom imaging chambers for imaging with an inverted fluorescence microscope.
Surface type is indicated on the Y axis, data are expressed as average±SD (N=6/surface type). Each dot corresponds to a specific surface modification. The F-actin expression relates the cellular stress of the cell in presence of the exogenous material.
In FIG. 4 the surface type is indicated on the Y axis. Each dot corresponds to a specific surface modification. Data are expressed as “Integrated Density” average±SD (N=6/surface type). CD31 expression relates the capacity of endothelial cells to adopt a physiologic phenotype while growing on a given substrate. An important variability is observed in terms of CD31 expression by HAEC according to the surface modification of the nitinol disks.
The “mirror” bars of FIG. 5 report the average Integrated Density of F-actin (left) and of CD31 (right) staining for each of the indicated (Y axis) type of peptide coated onto the disk surface and bare disks. Data are sorted (from the top to the bottom) according to the increase in the cellular stress (actin expression) of each coating. As shown on the figure, the degree of cellular stress (as detected by a high actin expression) and impaired endothelial phenotype (documented by a low CD31 expression) is evident on HAEC grown onto bare metal disks.
The data shown in FIG. 6 are expressed as the ratio between CD31 and F-actin expression.
The effect of different peptides, belonging to the different groups, were tested in batches following the same protocol as in FIG. 6. Different peptides from each group were tested in batches and the effect of individual peptides was repeatedly assessed in separate experiments. Data from all experiments were obtained by computer-assisted analysis of images of the disk side covered with endothelial cells, captured in the blue, green and red channel of an inverted fluorescence microscope. The functional score of the peptides belonging to the different groups was calculated by multiplying the number of cells (as detected by the number of blue, Dapi+ nuclei) for the integrated density of CD31 expression (red signal provided by the binding of a mouse anti-human CD31 monoclonal antibody, clone 9G11, conjugated allophycocyanin) and their product being divided for the integrated density of the F-actin polymerization (Phalloidin coupled to a green fluorochrome). […]
Turning to “SHQMLFYKDDVLFYNISSS-GGSGGSGG-K(N3)-CONH2 (SHQMLFYKDDVLFYNISSSGGSGGSGG[Lys(N3)]-NH2; N-terminus assumed; SMILES CC[C@H](C)[C@H](NC(=O)[C@H](CC(N)=O)NC(=O)[C@H](Cc1ccc(O)cc1)NC(=O)[C@H](Cc1ccccc1)NC(=O)[C@H](CC(C)C)NC(=O)[C@@H](NC(=O)[C@H](CC(=O)O)NC(=O)[C@H](CC(=O)O)NC(=O)[C@H](CCCCN)NC(=O)[C@H](Cc1ccc(O)cc1)NC(=O)[C@H](Cc1ccccc1)NC(=O)[C@H](CC(C)C)NC(=O)[C@H](CCSC)NC(=O)[C@H](CCC(N)=O)NC(=O)[C@H](Cc1c[nH]cn1)NC(=O)[C@@H](N)CO)C(C)C)C(=O)N[C@@H](CO)C(=O)N[C@@H](CO)C(=O)N[C@@H](CO)C(=O)NCC(=O)NCC(=O)N[C@@H](CO)C(=O)NCC(=O)NCC(=O)N[C@@H](CO)C(=O)NCC(=O)NCC(=O)N[C@@H](CCCCN=[N+]=[N-])C(N)=O) [SP745]”, the CD31/Actin score entry is recorded as “significantly higher than those obtained by the bare metal disks or by disks coated with PDA alone”.
For “Ac-K(N3)-PEG4-PRVTLDKKEAIQGGIVRVNSSVPEEK-CONH2 (Ac-[Lys(N3)][PEG4′]PRVTLDKKEAIQGGIVRVNSSVPEEK-NH2) [SP1071]”, the CD31/Actin score result was “significantly higher than those obtained by the bare metal disks or by disks coated with PDA alone”.
As for “Ac-K(N3)-GGSGGSGG-YKDDVLFYNISSMKST-NH2 (Ac-[Lys(N3)]GGSGGSGGYKDDVLFYNISSMKST-NH2; SMILES CC[C@H](C)[C@H](NC(=O)[C@H](CC(N)=O)NC(=O)[C@H](Cc1ccc(O)cc1)NC(=O)[C@H](Cc1ccccc1)NC(=O)[C@H](CC(C)C)NC(=O)[C@@H](NC(=O)[C@H](CC(=O)O)NC(=O)[C@H](CC(=O)O)NC(=O)[C@H](CCCCN)NC(=O)[C@H](Cc1ccc(O)cc1)NC(=O)CNC(=O)CNC(=O)[C@H](CO)NC(=O)CNC(=O)CNC(=O)[C@H](CO)NC(=O)CNC(=O)CNC(=O)[C@H](CCCCN=[N+]=[N-])NC(C)=O)C(C)C)C(=O)N[C@@H](CO)C(=O)N[C@@H](CO)C(=O)N[C@@H](CCSC)C(=O)N[C@@H](CCCCN)C(=O)N[C@@H](CO)C(=O)N[C@H](C(N)=O)[C@@H](C)O) [SP547]”, the CD31/Actin score result is recorded as “equivalent to those of sections coated by other peptides according to the invention”.
The result for “Ac-YKDDVLFYNISSMKST-GGSGGSGG-K(N3)-NH2 (Ac-YKDDVLFYNISSMKSTGGSGGSGG[Lys(N3)]-NH2; SMILES CC[C@H](C)[C@H](NC(=O)[C@H](CC(N)=O)NC(=O)[C@H](Cc1ccc(O)cc1)NC(=O)[C@H](Cc1ccccc1)NC(=O)[C@H](CC(C)C)NC(=O)[C@@H](NC(=O)[C@H](CC(=O)O)NC(=O)[C@H](CC(=O)O)NC(=O)[C@H](CCCCN)NC(=O)[C@H](Cc1ccc(O)cc1)NC(C)=O)C(C)C)C(=O)N[C@@H](CO)C(=O)N[C@@H](CO)C(=O)N[C@@H](CCSC)C(=O)N[C@@H](CCCCN)C(=O)N[C@@H](CO)C(=O)N[C@H](C(=O)NCC(=O)NCC(=O)N[C@@H](CO)C(=O)NCC(=O)NCC(=O)N[C@@H](CO)C(=O)NCC(=O)NCC(=O)N[C@@H](CCCCN=[N+]=[N-])C(N)=O)[C@@H](C)O) [SP548]” reads “equivalent to those of sections coated by other peptides according to the invention”; that for “[^#CH2CONH2GTYKSTVIVNNKEKTTAEYQ-(Ttds)4-K(N3)-NH2]-[QHQMLFYhC^#DDVLFYNISSMK-CONH2] (chain 1 GTYKSTVIVNNKEKTTAEYQ-{Ttds-Ttds-Ttds-Ttds-Lys(N3)-NH2}; chain 2 QHQMLFY[hCys]DDVLFYNISSMK-NH2; not fully specified (N-terminus); also: thioether at chain B 8 to a chain's N-terminus) [SP1379]”, “significantly higher than those obtained by the bare metal disks or by disks coated with PDA alone”.
